Assay results taken from patent US11447533B2, “Antimicrobial and anticancer peptides and conjugates and compositions, methods, articles and kits relating thereto” (George Mason Research Foundation, Inc., priority 2018, dated 2022).

Assays:
[1] = Endotoxin binding: competitive displacement of BODIPY TR-Cadaverine from LPS; set-up: species or system Escherichia coli; details: 5 μM peptide, 10 μM BC, 10 μg/mL LPS, low ionic-strength 10 mM Na-PO4
Description: FIGS. 2A-2B are graphs showing endotoxin binding. The figures depict the competitive displacement of BC from LPS/LTA by the peptides. 5 μM of each peptide was incubated with 10 μM BC and 10 μg/mL LPS from E. coli (0111:B4) or LTA from S. aureus. Fluorescence intensity was measured at excitation=580 nm and emission=620 nm. 10 μM BC without endotoxin was used as 100% displacement while 10 μM BC with 10 μg/mL LPS/LTA without any peptide as 0% displacement and the % displacement of BC by each peptide was calculated accordingly. […] had been used as a positive control. The horizontal dotted line coincides with the % displacement of BC by ATRA1 on the y-axis.
FIGS. 6A-6B are graphs showing endotoxin (LPS (FIG. 6A) and LTA (FIG. 6B)) binding. Competitive displacement of BC from LPS/LTA. In each case, 5 μM peptide was incubated with 10 μM BC and 10 μg/mL LPS from E. coli (0111:B4) or LTA from S. aureus. Fluorescence intensity was measured using excitation=580 nm and emission=620 nm. As a positive control 10 μM BC without endotoxin was used as a reference for 100% displacement while 10 μM BC with 10 μg/mL LPS/LTA without any peptide as a negative control and a reference for 0% displacement. These controls were used to calculate % BC displacement for each peptide.
Endotoxin Binding. The binding of endotoxin (LPS/LTA) was evaluated using a fluorogenic conjugateBODIPY TR-Cadaverine (BC). BC binds endotoxin loses its fluorescence. The peptide competitively displaces BC from endotoxin and the fluorescence is reestablished. Competitive inhibition of endotoxin-BC binding was utilized due to presence of peptides already in complexion with endotoxin. 25 μL of 20 μM of peptides in 10 mM Na—PO4 buffer were incubated with 25 μL of LPS (40 μg/mL) or LTA (40 μg/mL) for 15 min and then added with 50 μL of BC (20 uM). Peptides bind to LPS or LTA and competitively prevents BC bind to the endotoxin. BC loses its fluorescence on binding to endotoxin. The fluorescence intensity of the unbound BC was measured at excitation=580 nm and emission=620 nm.
BC contains two functional moieties: BODIPY (boron-dipyrromethene) and cadaverine connected via a carboxamide. BODIPY is the fluorophore of BC and fluoresces in the free state in solution but loses fluorescence when bound to LPS/LTA. The competitive displacement of BC from LPS/LTA by AMPs and thus regeneration of the fluorescence has frequently been used to estimate the binding strength of AMPs with LPS/LTA. In the present studies, 5 μM of each peptide was used to displace BC from LPS/LTA. […] Such observation contradicts the initial assumption that substitution of Lys with arginine would result in increased efficiency of LPS binding. However, with sequential substitutions of Lys with arginine, starting with ATRA1-AR, peptide variants show increased LPS binding with each additional arginine substitution. In terms of LPS binding: ATRA1-AR<ATRA1-AR2<ATRA1-AR3. In ATRA1-R3, the lysine residues at 9th, 5th and 1st positions of ATRA1 were substituted with arginine. In ATRA1-R6 all of the lysine residues were replaced with arginine.

E. coli ATCC 25922 = assay: Antimicrobial efficacy (resazurin virtual colony count); assay type: cell-based, Escherichia coli; details: pH 7.4
Description: Antimicrobial Studies. The phosphate buffers used for antimicrobial assays were supplemented with non-nitrogenous energy source, 0.1% (w/v) glucose. To conduct antimicrobial assays, bacterial strains were first suspended in respective buffers. E. coli (ATCC 25922) and B. cereus (ATCC 11778) were grown in MHB II up to OD600 nm˜1 and stored as frozen stock in 20% glycerol at −80° C. Occasionally they were thawed and enumerated by serial dilution and spreading on MHB II agar plates. The concentrations of the frozen stocks of E. coli and B. cereus strains were 1.0-1.1*10^8 CFU/mL with OD600 nm˜0.8. In case of other bacterial strains, they were grown on the days of experiment up to OD600 nm˜1-1.5 and then adjusted to OD600 nm˜0.8. The growth media of the drug-resistant bacterial strains were supplemented with few of the respective antibiotics against which they are resistant. 200 μL of the 0.8 OD600 nm culture were added to 10 mL of the respective buffer to obtain a suspension which was used to incubate with equal volumes of peptide solution in the same buffer.
Antimicrobial assays in different phosphate buffers and serum were conducted by adapting, with necessary modifications a fast high-throughput method based on Virtual Colony Count technique and later modified by incorporating the use of resazurin. At first serial dilution of a microbial strain in respective buffer was poured in the wells of 96 well polypropylene microplate and was then added with same volume of 2× MHB II supplemented with 80 μg/mL resazurin and incubated at 35° C. in a Gemini EM Microplate Reader (Molecular Devices) overnight with intermittent shaking. As the microbe grows it reduces non-fluorescent resazurin to fluorescent resorufin and the fluorescent intensity of each well were measured (excitation=570 nm, emission=590 nm) each 5 min for 15 hours. The time (t, min) to reach a certain fluorescence (RFU=20000 with respect to the starting fluorescence) was correlated with the initial bacterial concentration (in CFU/mL) in the particular well to obtain a calibration plot of the form: Log([Bacteria],CFU/mL)=b+m*t Equation 4: […]
To obtain antimicrobial efficacy of the peptides, 50 μL of serially diluted peptide in a buffer was incubated with 50 μL microbial suspension in the same buffer for 3 hours in black polypropylene 96 well plate. After incubation the wells were added with 100 μL of 2× MHB II supplemented with 80 μg/mL resazurin and then incubated with continuous fluorescence reading for overnight time period as described earlier. The surviving microbial population (CFU/mL) in each well were calculated by first finding the time to reach a fluorescence of RFU=20000 and the correlation (4) for the specific microbial strain and buffer. % Survival represents the proportion of viable cells in peptide treated cells relative to cells treated with the respective buffer alone. Equation 5: […]
Finally, the antimicrobial effectiveness of each peptide against the particular microbial strain in the specific buffer was determined by plotting % microbial survival as a function of the log of the concentration of the peptide and fitting the resulting data to a variable-slope sigmoidal regression model (equation 6). In this equation, log(EC50) represents the log of the concentration of the peptide required to kill half of the microbial population, where Smin and Smax correspond to the minimal and maximal microbial survival values (respectively), and H, Hill slope, is the parameter defining the steepness of the transition slopes of sigmoidal survival curves. % Microbial survival=Smin+(Smax−Smin)/(1+10^log(EC^50^)-log[peptide]*H) Equation 6: […]
The antimicrobial efficacies of the peptides were first tested against the model Gram-negative bacteria, E. coli ATCC 25922, in different phosphate buffers having varied ionic strengths and compositions. The phosphate buffers that were used included 10 mM sodium phosphate (calculated ionic strength˜25 mM), PBS and DPBS. […]

[2] = system: E. coli ML35p outer membrane; assay: Outer membrane disruption (β-lactamase leakage, nitrocefin); assay type: cell-based, Escherichia coli; details: DPBS
Description: (§1) Interactions with Bacterial Membranes. Interaction of the peptides with bacterial membranes in different phosphate buffers were evaluated using E. coli ML35p, constructed in our laboratory. At first, competent cells of E. coli ML35 were produced by conventional competent cell preparation method, then transformed with pBR322 plasmid. Transformed colonies were selected after growing on Luria-agar containing 50 μg/mL ampicillin. A single transformed colony was grown in presence of ampicillin first in Luria broth and then in MHBII and stored as 20% glycerol stock at −80° C. This frozen stock, on the day of the experiment, was thawed and grown in MHBII containing ampicillin up to OD600 nm=0.8-0.9, washed with PBS and then suspended in the respective buffer up to the required OD600 nm for use.
Membrane Disruptions. The outer and the inner membrane disruptions by the peptides were evaluated by incubating bacterial suspension with peptides and then measuring the activity of enzymes leaked out of the cells. 100 μL of 10× concentration of peptide in water was incubated with 900 μL bacterial suspension (OD600 nm˜0.1) in respective buffer for 3 hours at room temperature with gentle rotation. Then the cells and debris were separated by centrifugation (10000 r.p.m. for 30 mins) and the supernatant was collected and tested for activity of enzymes that had leaked out of the bacterial cells. HCMAB was used as a positive control to cause 100% membrane disruption and water as a negative causing 0% disruption.
The outer membrane disruption was tested by using the activity of beta-lactamase present in the periplasmic space of E. coli ML35p. Peptides when disrupt the outer membrane enough to cause beta-lactamase to come out, the degree of disruption can be measured by the virtue of the kinetics of the enzyme and using a chromogenic cephalosporin substrate called nitrocefin. β-lactamase mediated hydrolyzed product of nitrocefin has an absorbance αmax=486 nm. Supernatant collected from the incubation of peptide with bacteria was added with nitrocefin solution in DPBS and incubated at 35° C. and continuous absorbance readings. The slope of the linear section of the absorbance curve (absorbance vs time), was used as a measure of membrane disruption and the % Disruption was calculated as: Equation 7: […]
Some of the ATRA1-variants were further tested for their ability to disrupt outer and inner membranes to form pores or disruptions sufficiently large so as to allow enzymes to leak out of their cellular compartments (cytoplasm or periplasmic space). For this purpose, two reporter molecules were used with one being the substrate of a cytoplasmic enzyme and the other was a substrate for an enzyme residing in the periplasmic space. One of the reporters, nitrocefin was the substrate for β-lactamase, which is present in the bacterial periplasm, whereas the other molecule, ONPG, was the substrate for β-galactosidase, which resides in the cytoplasm of E. coli ML35p strain. […] Similarly, β-galactosidase activity in the supernatants is evidence of inner membrane disruption and possible pore formation. When the aforesaid supernatants were tested for nitrocefin and ONPG hydrolysis, the corresponding absorbance increased with time (data not shown) indicating β-lactamase and β-galactosidase activity, respectively, and thus disruption of both the inner and outer membranes. The slopes of the increase in absorbance as a function of time provides the rate of enzyme activity. The enzyme activities in supernatants collected after incubation of bacteria with the quaternary ammonium surfactant, hexadecyltrimethylammonium bromide (HCMAB) was used as an internal reference for 100% membrane disruption. Enzyme activity for supernatants collected for cells incubated in the absence of peptide provided a reference for 0% membrane disruption. Bee venom peptide melittin was used as a positive control. […]

[3] = system: E. coli ML35p outer membrane; assay: NPN assay, outer membrane perturbation; assay type: cell-based, Escherichia coli; details: DPBS; 25 μM peptide; 25 μM PMB = 100%
Description: as §1
NPN Assay. The outer membrane perturbation of bacteria was evaluated by incubating E. coli ML35p with peptides in presence of NPN. 100 mM NPN in acetone was supplemented proportionately to a bacterial suspension of OD600 nm˜0.5 to achieve a final concentration of 20 μM of NPN and the mixture was equilibrated for 30 mins. Then, 90 μL of the bacterial suspension containing 20 μM NPN was added with 10 μL of 250 μM peptide (10×) solution in water and scanned for fluorescence intensity (excitation=350 nm, emission=420 nm). The % Perturbation was calculated by considering PMB to be causing 100% Perturbation and water (without peptide) as 0% Perturbation. Each peptide was tested in triplicate in each of the three phosphate buffers used.
When peptides partition from the bulk aqueous environment to the cellular membranes, they may cause small defects in the membrane organization, a signature of adsorption of the peptides into the membranes. Such small defects are called membrane perturbations and can be evaluated by utilizing molecular probes. One such molecular probe is NPN, which is a hydrophobic molecule and is usually repelled to enter the hydrophobic interiors of the membrane by the polar headgroups of membrane-lipids. However, when small defects and gaps are caused during the adsorption of the peptides into the membranes, NPN can enter through those defects and in the hydrophobic environment of the membrane interior the molecule fluoresces, which can be measured for quantification of the extent of membrane-perturbation and peptide adsorption in the cellular membrane.

[4] = PBS (high / physiologically relevant ionic strength)

Sequence	LPS binding (BC displacement), in words [1]	antimicrobial efficacy, in words (E. coli ATCC 25922; DPBS (with Ca++ and Mg++))	antimicrobial efficacy, in words (E. coli ATCC 25922; [4])	time to reach maximum signal for nitrocefin hydrolysis [2]	membrane perturbation with respect to PMB [3]
KRAKRFFKRLK (SEQ ID NO: 7) [ATRA1-AR2]	ATRA1-AR<ATRA1-AR2<ATRA1-AR3	lose activity in DPBS	more potent than ATRA1-A	–	–
KRWKKWFKKWK (SEQ ID NO: 13) [ATRA1-W3]	–	–	–	approximately 30 mins	higher OM perturbation than ATRA1
RRAKRFFKRLK (SEQ ID NO: 8) [ATRA1-AR3]	ATRA1-AR<ATRA1-AR2<ATRA1-AR3	lose activity in DPBS	greater effectiveness than both ATRA1-A and ATRA1	–	–
